Here are results for 24 compounds from patent publication US20110081315A1, “NOVEL MACROCYCLIC INHIBITORS OF HEPATITIS C VIRUS REPLICATION” (INTERMUNE, INC., priority 2009, published 2011).

SMILES strings stand for the structures. Read-outs that look alike come from different tables or passages of the source. Where only a bound is given, the exact number is not on record here.

The test system of one assay is hepatitis C replicon. Nature of the assay: hepatitis C replicon EC50 assay. The class given is cell-based. The note with it: Hepatitis C virus. The text has this:
(§1) NS3-NS4 inhibition activity can be determined using known assay methods. For example, NS3/NS4 complexes may be formed and inhibitory concentrations of test compounds determined as described in U.S. Patent Application Publication Number 2007/0054842 paragraph numbers 1497-1509, which is incorporated herein by reference in its entirety. Similarly, hepatitis C replicon EC50 may be determined using known assay methods such as described in U.S. Patent Application Publication Number 2007/0054842 paragraph numbers 1510-1515, which is incorporated herein by reference in its entirety. Assays may be conducted at ambient temperature (23° C.) in assay buffer containing 50 mM Tris-HCl, pH 7.5, 15% glycerol, 0.6 mM Lauryldimethylamine Oxide (LDAO), 25 μM NS4A peptide, and 10 mM Dithiothreitol (DTT).

Another assay deals with NS3/NS4 complexes (Hepatitis C virus genotype 1a, UniProt P27958). The assay can be described thus: NS3/NS4 inhibition assay (IC50). It counts as biochemical. The note with it: NS3/NS4 activity; 23° C., 25 μM NS4A peptide.
Chain of NS3/NS4 complexes (P27958 1027-1657, one chain of several): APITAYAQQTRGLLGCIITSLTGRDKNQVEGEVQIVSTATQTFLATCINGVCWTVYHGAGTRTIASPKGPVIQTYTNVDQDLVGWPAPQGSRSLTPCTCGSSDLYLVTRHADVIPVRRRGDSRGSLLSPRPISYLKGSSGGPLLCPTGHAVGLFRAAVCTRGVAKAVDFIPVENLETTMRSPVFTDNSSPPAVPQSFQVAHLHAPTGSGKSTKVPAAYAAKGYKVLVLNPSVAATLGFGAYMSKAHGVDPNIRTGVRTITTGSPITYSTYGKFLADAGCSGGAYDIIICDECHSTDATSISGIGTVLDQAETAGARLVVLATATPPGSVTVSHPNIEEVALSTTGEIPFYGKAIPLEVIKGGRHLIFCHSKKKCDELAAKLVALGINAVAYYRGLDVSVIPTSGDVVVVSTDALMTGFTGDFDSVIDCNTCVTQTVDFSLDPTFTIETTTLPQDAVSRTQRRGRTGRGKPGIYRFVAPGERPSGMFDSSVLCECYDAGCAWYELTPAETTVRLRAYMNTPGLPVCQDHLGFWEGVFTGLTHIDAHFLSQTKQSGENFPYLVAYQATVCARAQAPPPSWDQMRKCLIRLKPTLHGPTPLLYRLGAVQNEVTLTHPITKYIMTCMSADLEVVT
Source text: as §1

The mark [1] stands for this setting: hepatitis C replicon, read-out: EC50.

The term EC50 denotes the concentration giving half of the maximal effect. Broadly, the IC50 is the concentration that gives 50% inhibition. In the case of `CC(C)n1c(O[C@@H]2C[C@H]3C(=O)N[C@]4(C(=O)NS(=O)(=O)C5(C)CC5)C[C@H]4/C=C\CCCCC[C@H](NC(=O)OC(C)(C)C)C(=O)N3C2)nc2c(-c3nc(Cc4cccc(F)c4)cs3)cccc21` [Compound 1725], the EC50 in the assay on hepatitis C replicon (setting [1]) is less than 10 nM. The compound also came in with an IC50 against NS3/NS4 complexes of less than 10 nM.
In the case of `CC(C)n1c(O[C@@H]2C[C@H]3C(=O)N[C@]4(C(=O)NS(=O)(=O)N(C)C)C[C@H]4/C=C\CCCCC[C@H](NC(=O)OC(C)(C)C)C(=O)N3C2)nc2c(-c3nc(Cc4ccccc4Cl)cs3)cccc21` [Compound 1760], the EC50 with hepatitis C replicon (setting [1]) was in the range of 10 to 100 nM. This compound also showed an IC50 against NS3/NS4 complexes of less than 10 nM.
The like results for `CC(C)c1nc2ccccc2nc1O[C@@H]1C[C@H]2C(=O)N[C@]3(C(=O)NS(=O)(=O)N(C)C)C[C@H]3/C=C\CCCCC[C@H](NC(=O)OC(C)(C)C)C(=O)N2C1` [Compound 305] were, in that order, less than 10 nM and less than 10 nM.
As to `CC(C)n1c(O[C@@H]2C[C@H]3C(=O)N[C@]4(C(=O)NS(=O)(=O)N(C)C)C[C@H]4/C=C\CCCCC[C@H](NC(=O)OC(C)(C)C)C(=O)N3C2)nc2c(-c3nc(-c4ccccc4F)cs3)cccc21` [Compound 1747], the EC50 in the assay on hepatitis C replicon (setting [1]) lay in the range of 10 to 100 nM. At NS3/NS4 complexes, this compound yielded an IC50 of less than 10 nM.
Taken in the same sequence, the figures for `CC(C)n1c(O[C@@H]2C[C@H]3C(=O)N[C@]4(C(=O)NS(=O)(=O)N(C)C)C[C@H]4/C=C\CCCCC[C@H](NC(=O)OC(C)(C)C)C(=O)N3C2)nc2c(-c3nc(C4CC4)cs3)cccc21` [Compound 1776] were less than 10 nM and less than 10 nM.
The like results for `CC(C)c1coc(-c2cccc3c2nc(O[C@@H]2C[C@H]4C(=O)N[C@]5(C(=O)NS(=O)(=O)N(C)C)C[C@H]5/C=C\CCCCC[C@H](NC(=O)OC(C)(C)C)C(=O)N4C2)n3C(C)C)n1` [Compound 1435] were, in that order, less than 10 nM and less than 10 nM.
Taken in the same sequence, the figures for `CC(C)n1c(O[C@@H]2C[C@H]3C(=O)N[C@]4(C(=O)NS(=O)(=O)C5(C)CC5)C[C@H]4/C=C\CCCCC[C@H](NC(=O)OC(C)(C)C)C(=O)N3C2)nc2c(-c3nc(C4CCCCC4)cs3)cccc21` [Compound 1769] were less than 10 nM and less than 10 nM.
For the compound `Cc1oc(-c2cccc3c2nc(O[C@@H]2C[C@H]4C(=O)N[C@]5(C(=O)NS(=O)(=O)N(C)C)C[C@H]5/C=C\CCCCC[C@H](NC(=O)OC(C)(C)C)C(=O)N4C2)n3C(C)C)nc1C(C)(C)C` [Compound 1205], the half-maximal effective concentration (EC50) in the assay with hepatitis C replicon (setting [1]) was less than 10 nM. The compound also came in with an IC50 against NS3/NS4 complexes of less than 10 nM.
Turning to `CC(C)n1c(O[C@@H]2C[C@H]3C(=O)N[C@]4(C(=O)NS(=O)(=O)C5(C)CC5)C[C@H]4/C=C\CCCCC[C@H](NC(=O)OC(C)(C)C)C(=O)N3C2)nc2c(-c3nc4c(s3)CCC4)cccc21` [Compound 1765], the half-maximal effective concentration (EC50) in the assay on hepatitis C replicon (setting [1]) was less than 10 nM. At NS3/NS4 complexes, this compound registered an IC50 of less than 10 nM.
Consider `CC(C)n1c(O[C@@H]2C[C@H]3C(=O)N[C@]4(C(=O)NS(=O)(=O)N(C)C)C[C@H]4/C=C\CCCCC[C@H](NC(=O)OC(C)(C)C)C(=O)N3C2)nc2c(-c3cnc(N4CCOCC4)cn3)cccc21` [Compound 1744], for which, in the assay with hepatitis C replicon (setting [1]), the EC50 is less than 10 nM. The same compound had an IC50 on NS3/NS4 complexes of less than 10 nM.
As for `CC(C)n1c(O[C@@H]2C[C@H]3C(=O)N[C@]4(C(=O)NS(=O)(=O)N(C)C)C[C@H]4/C=C\CCCCC[C@H](NC(=O)OC(C)(C)C)C(=O)N3C2)nc2c(-c3ccccc3F)cccc21` [Compound 261], the 50% effective concentration (EC50) with hepatitis C replicon (setting [1]) lay in the range of 10 to 100 nM. Besides, at NS3/NS4 complexes, the IC50 is less than 10 nM.
For `CC(C)n1c(O[C@@H]2C[C@H]3C(=O)N[C@]4(C(=O)NS(=O)(=O)N(C)C)C[C@H]4/C=C\CCCCC[C@H](NC(=O)OC(C)(C)C)C(=O)N3C2)nc2c(NC(=O)Nc3ccccc3)cccc21` [Compound 1420], the EC50 with hepatitis C replicon was less than 10 nM. Also, at NS3/NS4 complexes, the half-inhibitory concentration (IC50) was less than 10 nM.
For `CC(C)n1c(O[C@@H]2C[C@H]3C(=O)N[C@]4(C(=O)NS(=O)(=O)N(C)C)C[C@H]4/C=C\CCCCC[C@H](NC(=O)OC(C)(C)C)C(=O)N3C2)nc2c(-c3nc(C(C)(C)C)cs3)cccc21` [Compound 232], in the assay on hepatitis C replicon (setting [1]), the EC50 is 10 to 100 nM. At NS3/NS4 complexes, this compound registered an IC50 of less than 10 nM.
Take `CC(C)c1csc(-c2cccc3c2nc(O[C@@H]2C[C@H]4C(=O)N[C@]5(C(=O)NS(=O)(=O)N(C)C)C[C@H]5/C=C\CCCCC[C@H](NC(=O)OC(C)(C)C)C(=O)N4C2)n3C(C)C)n1` [Compound 1433]: the EC50 in the assay with hepatitis C replicon (setting [1]) is less than 10 nM. At NS3/NS4 complexes, this compound showed an IC50 of less than 10 nM.
As to `CC(C)NC(=O)c1cccc2c1nc(O[C@@H]1C[C@H]3C(=O)N[C@]4(C(=O)NS(=O)(=O)C5(C)CC5)C[C@H]4/C=C\CCCCC[C@H](Nc4ccccc4)C(=O)N3C1)n2C(C)C` [Compound 272], in the assay with hepatitis C replicon (setting [1]), the EC50 lay within 10 to 100 nM. This compound registered an IC50 against NS3/NS4 complexes of less than 10 nM.
Taken in the same sequence, the figures for `CC(C)n1c(O[C@@H]2C[C@H]3C(=O)N[C@]4(C(=O)NS(=O)(=O)C5(C)CC5)C[C@H]4/C=C\CCCCC[C@H](NC(=O)OC(C)(C)C)C(=O)N3C2)nc2c(-c3csc(N4CCOCC4)n3)cccc21` [Compound 1704] were less than 10 nM and less than 10 nM.
Taken in the same sequence, the figures for `CCCN1CCN(C(=O)c2cccc(N[C@H]3CCCCC/C=C\[C@@H]4C[C@@]4(C(=O)NS(=O)(=O)C4(C)CC4)NC(=O)[C@@H]4C[C@@H](Oc5cc(-c6nc(C(C)C)cs6)nc6c(C)c(OC)ccc56)CN4C3=O)c2)CC1` [Compound 113] were less than 10 nM and less than 10 nM.
The like results for `C=Cc1cccc2c1nc(O[C@@H]1C[C@H]3C(=O)N[C@]4(C(=O)NS(=O)(=O)C5CC5)C[C@H]4/C=C\CCCCC[C@H](NC(=O)OC(C)(C)C)C(=O)N3C1)n2C(C)C` [Compound 225] were, in that order, less than 10 nM and less than 10 nM.
For the compound `CC(C)n1c(O[C@@H]2C[C@H]3C(=O)N[C@]4(C(=O)NS(=O)(=O)C5CC5)C[C@H]4/C=C\CCCCC[C@H](NC(=O)OC(C)(C)C)C(=O)N3C2)nc2cncnc21` [Compound 504], the half-maximal effective concentration (EC50) with hepatitis C replicon (setting [1]) lay in the range of 10 to 100 nM. Also, on NS3/NS4 complexes, the IC50 is less than 10 nM.
Consider `COc1ccc2c(O[C@@H]3C[C@H]4C(=O)N[C@]5(C(=O)NS(=O)(=O)C6(C)CC6)C[C@H]5/C=C\CCCCC[C@H](Nc5cccc(C(C)(C)C)c5)C(=O)N4C3)cc(-c3nc(C(C)C)cs3)nc2c1C` [Compound 129], for which, in the assay on hepatitis C replicon (setting [1]), the EC50 lay in the range of 10 to 100 nM. Also, the IC50 on NS3/NS4 complexes is less than 10 nM.
For the compound `CC(C)n1c(O[C@@H]2C[C@H]3C(=O)N[C@]4(C(=O)NS(=O)(=O)N(C)C)C[C@H]4/C=C\CCCCC[C@H](NC(=O)OC(C)(C)C)C(=O)N3C2)nc2c(-c3nc(-c4ccncc4)cs3)cccc21` [Compound 1737], in the assay with hepatitis C replicon (setting [1]), the EC50 was less than 10 nM. In addition, the IC50 at NS3/NS4 complexes is less than 10 nM.
As for `Cc1csc(-c2cccc3c2nc(O[C@@H]2C[C@H]4C(=O)N[C@]5(C(=O)NS(=O)(=O)C6CC6)C[C@H]5/C=C\CCCCC[C@H](NC(=O)OC(C)(C)C)C(=O)N4C2)n3C(C)C)n1` [Compound 215], the EC50 in the assay on hepatitis C replicon (setting [1]) was less than 10 nM. In addition, the IC50 against NS3/NS4 complexes is less than 10 nM.
Turning to `COc1ccc2c(O[C@@H]3C[C@H]4C(=O)N[C@]5(C(=O)NS(=O)(=O)C6(C)CC6)C[C@H]5/C=C\CCCCC[C@H](Nc5cccc(C(=O)N6CCOC(C)C6)c5)C(=O)N4C3)cc(-c3nc(C(C)C)cs3)nc2c1C` (stereo partly drawn) [Compound 109], the EC50 with hepatitis C replicon (setting [1]) is less than 10 nM. On NS3/NS4 complexes, this compound yielded an IC50 of less than 10 nM.
In the case of `CC(C)n1c(O[C@@H]2C[C@H]3C(=O)N[C@]4(C(=O)NS(=O)(=O)C5(C)CC5)C[C@H]4/C=C\CCCCC[C@H](NC(=O)OC(C)(C)C)C(=O)N3C2)nc2c(-c3nc(-c4ccccc4F)cs3)cccc21` [Compound 1710], the EC50 in the assay with hepatitis C replicon (setting [1]) is 10 to 100 nM. The IC50 against NS3/NS4 complexes was less than 10 nM.
